The subject of this experiment is HL60 human leukaemia cell lines. Put plainly: Antiproliferative activity by MTS assay (CellTiter 96 Aqueous One Solution). Type of experiment: cell-based. To be noted: HL-60, HL60 cells, 72 hr treatment, triplicate. On the procedure: Antiproliferative activity was determined by MTS assay (Howell L A, Bowater R A, O'Connell M A, Reszka A P, Neidle S, Searcey M. (2012) Synthesis of Small Molecules Targeting Multiple DNA Structures using Click Chemistry. ChemMedChem, 7, 792-804) using the CellTiter 96 Aqueous One Solution Cell Proliferation Assay (Promega) and following the manufacturer's instructions.
The HL60 cell line was purchased from ECACC (Porton Down, UK). Cells were cultured in RPMI 1640 medium supplemented with 10% foetal calf serum and 2 mM L-glutamine. HL-60 cells were passaged twice weekly and maintained between 1-9×10^5 cells/ml at 37° C. and 5% CO2.
HL-60 cells (3×10^4/100 μl) were seeded in 96-well plates and left untreated or treated with DMSO (vehicle control), duocarmycins, or doxorubicin hydrochloride at 8 concentrations (see below) in triplicate for 72 hr at 37° C. with 5% CO2. Following this, MTS assay reagent was added for 4 hrs and the absorbance measured at 490 nm using the Polarstar Optima microplate reader (BMG Labtech). IC50 values were calculated using GraphPad Prism Version 5.0 software.
In general terms: Tetrazolium dyes change colour on reduction, which living cells bring about.

Structures can show the parent of a compound that is named as a salt.

In the case of `COc1cccc2c1C(=O)c1c(O)c3c(c(O)c1C2=O)C[C@@](O)(C(=O)CO)C[C@@H]3O[C@H]1C[C@H](N)[C@H](O)[C@H](C)O1` [Doxorubicin, doxorubicin hydrochloride], 125 nM corresponded to half-maximal inhibition (IC50).

Values taken from US9765077B2, “Synthesis of duocarmycin analogues” (University of East Anglia, priority 2015, dated 2017).
